The target in the assay is T1, Kinesin-like protein KIF11 (Homo sapiens, UniProt P52732).
T1 sequence (P52732 whole entry): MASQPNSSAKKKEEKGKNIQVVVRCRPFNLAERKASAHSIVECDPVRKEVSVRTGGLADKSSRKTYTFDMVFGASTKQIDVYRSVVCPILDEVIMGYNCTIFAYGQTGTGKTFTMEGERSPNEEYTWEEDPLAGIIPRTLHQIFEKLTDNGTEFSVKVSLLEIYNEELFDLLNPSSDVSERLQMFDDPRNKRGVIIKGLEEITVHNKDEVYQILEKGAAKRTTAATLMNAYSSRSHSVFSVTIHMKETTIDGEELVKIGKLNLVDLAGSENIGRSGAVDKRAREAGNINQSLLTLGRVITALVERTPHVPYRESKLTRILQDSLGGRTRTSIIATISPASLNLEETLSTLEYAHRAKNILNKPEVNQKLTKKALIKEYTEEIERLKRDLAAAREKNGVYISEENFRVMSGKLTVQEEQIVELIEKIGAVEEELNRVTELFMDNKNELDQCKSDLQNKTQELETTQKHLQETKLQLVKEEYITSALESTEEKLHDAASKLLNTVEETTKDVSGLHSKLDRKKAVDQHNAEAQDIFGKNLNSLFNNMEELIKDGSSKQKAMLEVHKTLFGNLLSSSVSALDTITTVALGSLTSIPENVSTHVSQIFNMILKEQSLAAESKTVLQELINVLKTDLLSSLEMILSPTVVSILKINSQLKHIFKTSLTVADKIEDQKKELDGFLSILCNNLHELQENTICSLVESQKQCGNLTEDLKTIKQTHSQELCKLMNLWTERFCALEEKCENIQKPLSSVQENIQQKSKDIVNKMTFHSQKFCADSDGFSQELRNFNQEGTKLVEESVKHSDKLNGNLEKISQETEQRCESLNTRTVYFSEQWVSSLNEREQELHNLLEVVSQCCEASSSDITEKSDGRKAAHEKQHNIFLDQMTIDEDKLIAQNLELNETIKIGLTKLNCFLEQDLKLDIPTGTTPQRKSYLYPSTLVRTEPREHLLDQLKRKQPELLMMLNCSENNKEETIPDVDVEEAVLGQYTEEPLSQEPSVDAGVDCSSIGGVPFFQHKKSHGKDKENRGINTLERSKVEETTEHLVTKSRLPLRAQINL
The assay can be described thus: In Vitro Assay: This example provides a representative in vitro assay for determining KSP activity in vitro. Purified microtubules obtained from bovine brain were purchased from Cytoskeleton Inc. (Denver, Colo., USA). The motor domain of human KSP (Eg 5, KNSL1) was cloned, expressed, and purified to greater than 95% homogeneity. Biomol Green was purchased from Affinity Research Products Ltd. (Matford Court, Exeter, Devon, United Kingdom). Microtubules and KSP motor protein (i.e., the KSP motor domain) were diluted in assay buffer (20 mM Tris-HCl (pH 7.5), 1 mM MgCl2, 10 mM DTT and 0.25 mg/mL BSA) to a final concentration of 35 μg/mL microtubules and 45 nM KSP. The microtubule/KSP mixture was then pre-incubated at 37 C. for 10 min to promote the binding of KSP to microtubules.

Data on one compound can be found in ChEMBL document CHEMBL3638619, “Oxazole and thiazole compounds as KSP inhibitors” (2014).

SMILES strings stand for the structures.

The term IC50 denotes the concentration that gives 50% inhibition.

With `C[C@H](O)C(=O)N(CC[C@H](N)CF)[C@H](c1nc(-c2cc(F)ccc2F)sc1Cc1ccccc1)C(C)(C)C`, the IC50 came out at 0.216 µM.
